Patent US6858591B2, “Antibiotic AA 896 analogs” (Wyeth Holdings Corporation, priority 2001, dated 2005)
Converted amounts (≈) assume the structure as drawn. Where two headings read alike, the source gives them in different places.

Key:
Experiment in all cases: In vitro MIC, broth dilution
Type in all cases: cell-based
[1] = system: E. coli GC 4559; details: Escherichia coli, GC4559
[2] = system: E. coli GC 4560; details: Escherichia coli, GC4560
[3] = system: E. coli GC 3226; details: Escherichia coli, GC3226
[4] = system: S. marcescens GC 4077; details: Serratia marcescens, GC4077
[5] = system: C. albicans GC 3066; details: Candida albicans, GC3066
[6] = system: M. morganii GC 4531; details: Morganella morganii, GC4531
[7] = system: K. pneumoniae GC 4534; details: Klebsiella pneumoniae, GC4534
[8] = system: E. cloacae GC 3783; details: Enterobacter cloacae, GC3783
[9] = system: P. aeruginosa GC 4532; details: Pseudomonas aeruginosa, GC4532
[10] = system: CNS GC 4537
Outline: (§1)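 Broth microdilution per NCCLS in Mueller-Hinton II, inoculum 5×10^5 CFU/ml, antibiotic range 64-0.06 μg/ml. Plates incubated 18 hours at 35° C. in ambient air; MIC taken as lowest concentration inhibiting visible growth.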

[11] = system: CNS GC 4538
Outline: as §1

[12] = system: CNS GC 4547
Outline: as §1

[13] = system: E. faecalis GC 2242; details: Enterococcus faecalis, GC2242
Outline: as §1

[14] = system: E. faecalis GC 4555; details: Enterococcus faecalis, GC4555
Outline: as §1

[15] = system: E. faecalis GC 842; details: Enterococcus faecalis, GC842
Outline: as §1

[16] = system: S. aureus GC 1131; details: Staphylococcus aureus, GC1131
Outline: as §1

[17] = system: S. aureus GC 2216; details: Staphylococcus aureus, GC2216
Outline: as §1

[18] = system: S. aureus GC 4536; details: Staphylococcus aureus, GC4536
Outline: as §1

[19] = system: E. coli GC 2203; details: Escherichia coli, GC2203
[20] = system: P. aeruginosa GC 2214; details: Pseudomonas aeruginosa, GC2214
[21] = S. marcescens GC 4077, read-out: MIC
[22] = C. albicans GC 3066, read-out: MIC
[23] = M. morganii GC 4531, read-out: MIC
[24] = K. pneumoniae GC 4534, read-out: MIC
[25] = E. cloacae GC 3783, read-out: MIC
[26] = P. aeruginosa GC 4532, read-out: MIC
[27] = E. faecalis GC 2242, read-out: MIC
[28] = E. faecalis GC 4555, read-out: MIC
[29] = E. faecalis GC 842, read-out: MIC
[30] = S. aureus GC 1131, read-out: MIC
[31] = S. aureus GC 2216, read-out: MIC
[32] = S. aureus GC 4536, read-out: MIC
[33] = P. aeruginosa GC 2214, read-out: MIC

Row | Compound | MIC ([1]; E. coli GC 4559, read-out: MIC) | MIC ([2]; E. coli GC 4560, read-out: MIC) | MIC ([3]; E. coli GC 3226, read-out: MIC) | MIC [4, 21] | MIC [5, 22] | MIC [6, 23] | MIC [7, 24] | MIC [8, 25] | MIC [9, 26] | MIC ([10]; CNS GC 4537, read-out: MIC) | MIC ([11]; CNS GC 4538, read-out: MIC) | MIC ([12]; CNS GC 4547, read-out: MIC) | MIC [13, 27] | MIC [14, 28] | MIC [15, 29] | MIC [16, 30] | MIC [17, 31] | MIC [18, 32] | MIC ([19]; E. coli GC 2203, read-out: MIC) | MIC [20, 33] | further results
1 | COc1ccc(Cn2c(=O)ccn([C@@H]3OC([C@H](O)[C@H](NCCCNC(=O)[C@H](N)CC(C)C)C(=O)OC(C)(C)C)[C@@H](O[Si](C)(C)C(C)(C)C)[C@H]3O[Si](C)(C)C(C)(C)C)c2=O)cc1 (stereo partly drawn) [Example 57] | > 128 µg/mL | 128 µg/mL (≈ 143 µM) | > 128 µg/mL | 128 µg/mL (≈ 143 µM) | 128 µg/mL (≈ 143 µM) | 128 µg/mL (≈ 143 µM) | > 128 µg/mL | 128 µg/mL (≈ 143 µM) | 128 µg/mL (≈ 143 µM) | 4 µg/mL (≈ 4.48 µM) | 4 µg/mL (≈ 4.48 µM) | 64 µg/mL (≈ 71.7 µM) | 4 µg/mL (≈ 4.48 µM) | 4 µg/mL (≈ 4.48 µM) | 8 µg/mL (≈ 8.97 µM) | 64 µg/mL (≈ 71.7 µM) | 32 µg/mL (≈ 35.9 µM) | 8 µg/mL (≈ 8.97 µM) | > 128 µg/mL | 128 µg/mL (≈ 143 µM) | –
2 | COc1ccc(Cn2c(=O)ccn([C@@H]3OC([C@H](O)[C@H](NCCCNC(=O)[C@H](CC(C)C)NC(=O)[C@H](CCCNC(=N)N)NC(=O)N[C@H](C(=O)O)C(C)C)C(=O)OC(C)(C)C)[C@@H](O[Si](C)(C)C(C)(C)C)[C@H]3O[Si](C)(C)C(C)(C)C)c2=O)cc1 (stereo partly drawn) [Example 29, (2S,6S,9S,16S)-6-(3-{[Amino(imino)methyl]amino}propyl)-16-[(R)-[(3R,4R,5R)-3,4-bis{[tert-butyl(dimethyl)silyl]oxy}-5-(3-(4-methoxybenzyl)-2,4-dioxo-3,4-dihydro-1(2H)-pyrimidinyl)tetrahydro-2-furanyl](hydroxy)methyl]-9-isobutyl-2-isopropyl-19,19-dimethyl-4,7,10,17-tetraoxo-18-oxa-3,5,8,11,15-pentaazaicosan-1-oic acid] | – | – | – | – | – | – | – | – | – | – | – | – | – | – | – | – | – | – | – | – | MIC [1]: > 128 µg/mL; MIC [2]: 128 µg/mL (≈ 107 µM); MIC [3]: > 128 µg/mL; MIC [4]: 128 µg/mL (≈ 107 µM); MIC [5]: > 128 µg/mL; MIC [6]: 128 µg/mL (≈ 107 µM); MIC [7]: 128 µg/mL (≈ 107 µM); MIC [8]: 128 µg/mL (≈ 107 µM); MIC [9]: 128 µg/mL (≈ 107 µM); MIC [10]: > 128 µg/mL; MIC [11]: > 128 µg/mL; MIC [12]: > 128 µg/mL; MIC [13]: 128 µg/mL (≈ 107 µM); MIC [14]: > 128 µg/mL; MIC [15]: 128 µg/mL (≈ 107 µM); MIC [16]: > 128 µg/mL; MIC [17]: > 128 µg/mL; MIC [18]: > 128 µg/mL; MIC [19]: > 128 µg/mL; MIC [20]: 128 µg/mL (≈ 107 µM)
3 | CC(C)C[C@H](N)C(=O)NCCCN[C@H](C(=O)OC(C)(C)C)[C@@H](O)C1O[C@@H](n2ccc(=O)[nH]c2=O)[C@H](O[Si](C)(C)C(C)(C)C)[C@@H]1O[Si](C)(C)C(C)(C)C (stereo partly drawn) [Example 7, tert-Butyl (2S,3R)-2-[(3-{[(2S)-2-amino-4-methylpentanoyl]amino}propyl)amino]-3-[(3R,4R,5R)-3,4-bis{[tert-butyl(dimethyl)silyl]oxy}-5-(2,4-dioxo-3,4-dihydro-1(2H)-pyrimidinyl)tetrahydro-2-furanyl]-3-hydroxypropanoate] | > 128 µg/mL | 32 µg/mL (≈ 41.4 µM) | > 128 µg/mL | 128 µg/mL (≈ 166 µM) | 32 µg/mL (≈ 41.4 µM) | 128 µg/mL (≈ 166 µM) | 128 µg/mL (≈ 166 µM) | 128 µg/mL (≈ 166 µM) | 128 µg/mL (≈ 166 µM) | 1 µg/mL (≈ 1.3 µM) | 2 µg/mL (≈ 2.59 µM) | 2 µg/mL (≈ 2.59 µM) | 2 µg/mL (≈ 2.59 µM) | 2 µg/mL (≈ 2.59 µM) | 2 µg/mL (≈ 2.59 µM) | 1 µg/mL (≈ 1.3 µM) | 2 µg/mL (≈ 2.59 µM) | 1 µg/mL (≈ 1.3 µM) | > 128 µg/mL | 128 µg/mL (≈ 166 µM) | –
